Values of other authors in patent publication US6783772B1, “Pharmaceutical preparations containing alendronate sodium” (priority 2003, dated 2004).

What was measured:
bone resorption [1] = conditions: postmenopausal women; 5, 20 and 40 mg daily oral for six weeks
bone resorption [2] = conditions: 40 mg once daily for six months

NCCCC(O)(P(=O)([O-])O)P(=O)(O)O.O.O.O.[Na+] [Alendronate sodium, (4-amino-1-hydroxybutylidene) bisphosphonic acid monosodium salt trihydrate]
biochemical changes (urinary calcium, urinary markers of bone collagen degradation) (bone resorption [1]): dose-dependent inhibition of bone resorption | serum alkaline phosphotase and urinary markers of bone collagen degradation (bone resorption [2]): highly significant decreases | serum calcium phosphate (bone resorption [2]; clinical trials): generally mild, transient, decreases
